For the assay, the target named is Stimulator of interferon genes protein (Homo sapiens, UniProt Q86WV6). The assay can be described thus: Agonist activity at full length human STING expressed in HEK293T cotransfected with pISRE-luc and cGAS incubated for 24 hrs by steady-glo luciferase reporter gene assay. The assay is classed as cell-based. (In a reporter assay the amount or activity of a reporter protein is the signal.)

Consider one compound from ChEMBL document CHEMBL4680367, “Targeting Stimulator of Interferon Genes (STING) for the Potential Treatment of Cancer and Infectious Diseases” (ACS Med Chem Lett, 2021).

Chain of Stimulator of interferon genes protein (Q86WV6 whole entry): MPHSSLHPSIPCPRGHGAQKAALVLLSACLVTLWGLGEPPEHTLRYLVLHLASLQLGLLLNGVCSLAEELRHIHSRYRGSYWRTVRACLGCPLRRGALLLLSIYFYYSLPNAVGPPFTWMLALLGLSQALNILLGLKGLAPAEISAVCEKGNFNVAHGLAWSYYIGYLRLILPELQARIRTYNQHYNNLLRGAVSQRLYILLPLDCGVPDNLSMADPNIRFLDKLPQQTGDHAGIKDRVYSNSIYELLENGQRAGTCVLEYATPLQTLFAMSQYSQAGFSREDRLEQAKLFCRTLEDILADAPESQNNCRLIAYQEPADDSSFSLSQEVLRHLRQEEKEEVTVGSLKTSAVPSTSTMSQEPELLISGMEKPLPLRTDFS

Broadly, the EC50 is the concentration that produces a half-maximal response. Low readings indicate greater potency, high ones weaker potency. `CCCn1c(NC(=O)c2cc(C)nn2CC)nc2cc(C(N)=O)cc(OCN3CCOCC3)c21` had an EC50 of 1000 nM.
